Here are results for five compounds from PMC7997032, “Organic synthesis and anti-influenza A virus activity of cyclobakuchiols A, B, C, and D” (PLoS ONE, 2021).

The test concerns myxovirus-resistant protein 1 (Mx1). Description: RT-qPCR of Mx1 mRNA in MDCK cells with or without A/PR/8/34 virus. To be noted: for MDCK Mx1 mRNA, ave / MDCK Mx1 mRNA, individual replicates: 12.5uM, relative to virus - DMSO; for MDCK Mx1 mRNA, ave: ave of #1-3 exp; for MDCK Mx1 mRNA, individual replicates: replicates 1-3 of #1, #2, #3 exp. In kind it is cell-based, canine.

Several values for one entry are separate records, joined by “and”; a condition that tells them apart may be missing. Equal entries are not always repeated.

Turning to `C=C[C@]1(C)CCC(C(=C)C)C(c2ccc(O)cc2)C1` (stereo in doubt) [cyclobakuchiol A], the “mRNA level of Mx1 compared with 4 or 5-treatment” value is “significantly reduced”. For the setting “virus +”, the “MDCK Mx1 mRNA, ave” value worked out at 1.207. For the same compound, the “MDCK Mx1 mRNA, individual replicates” value (virus +, listed as Cyclobakuchiol A) is 0.2527 and 2.463 and 2.156 and 2.352 and 0.9916 and 0.8981 and 0.9472 and 0.4146 and 0.3917. Besides, under “virus -”, the “MDCK Mx1 mRNA, ave” value was 0.4356. For the same compound, the “MDCK Mx1 mRNA, individual replicates” value (virus -, listed as Cyclobakuchiol A) is 0.3455 and 0.4424 and 0.367 and 0.3469 and 0.4512 and 0.4646 and 0.7257 and 0.3943 and 0.3827.
For the compound `C=C[C@]1(C)CCC(C(=C)C)C(c2ccc(O)cc2)C1` (stereo in doubt) [cyclobakuchiol B], the “MDCK Mx1 mRNA, ave” value runs as follows: (virus +) 2.462; (virus -) 0.5972. The “MDCK Mx1 mRNA, individual replicates” value is 0.2997 and 4.213 and 3.979 and 5.553 and 2.777 and 2.185 and 2.395 and 0.2998 and 0.4603 (virus +, listed as Cyclobakuchiol B); 0.4518 and 0.5333 and 0.4418 and 0.5841 and 1.295 and 0.3791 and 0.8214 and 0.4024 and 0.4657 (virus -, listed as Cyclobakuchiol B).
`C=C[C@]1(C)CCC(C(C)(C)O)C(c2ccc(O)cc2)C1` (stereo in doubt) [cyclobakuchiol C]: the “MDCK Mx1 mRNA, ave” value is, setting by setting: (virus +) 4.111; (virus -) 1.049. Besides, the “MDCK Mx1 mRNA, individual replicates” value (virus +, listed as Cyclobakuchiol C) is 0.595 and 6.605 and 6.273 and 8.3748 and 5.332 and 3.973 and 4.3945 and 0.841 and 0.6149; the “MDCK Mx1 mRNA, individual replicates” value (virus -, listed as Cyclobakuchiol C) is 0.8391 and 0.8734 and 1.094 and 0.9606 and 1.231 and 1.129 and 1.257 and 1.188 and 0.8673.
For `C=C[C@]1(C)CCC(C(C)(C)O)C(c2ccc(O)cc2)C1` (stereo in doubt) [cyclobakuchiol D], the “MDCK Mx1 mRNA, ave” value came out at 4.805 (virus +) and 1.431 (virus -). Besides, the “MDCK Mx1 mRNA, individual replicates” value is 0.823 and 8.732 and 6.853 and 11.4737 and 5.421 and 3.904 and 4.71 and 0.7737 and 0.5563 (virus +, listed as Cyclobakuchiol D); 1.033 and 1.181 and 1.602 and 1.158 and 2.885 and 1.4873 and 1.3014 and 1.1198 and 1.11 (virus -, listed as Cyclobakuchiol D).
As for `C=C[C@@](C)(/C=C/c1ccc(O)cc1)CCC=C(C)C` [(+)-(S)-bakuchiol, reference compound], the “mRNA level of Mx1 compared with 4 or 5-treatment” value is given as “significantly reduced” and the “virus-induced upregulation of Mx1 mRNA” value is “significantly reduced”. In addition, for the setting “virus +”, the “MDCK Mx1 mRNA, ave” value came out at 1.1334; the “MDCK Mx1 mRNA, individual replicates” value is 0.2413 and 1.8944 and 2.953 and 2.445 and 0.9019 and 0.5846 and 0.6126 and 0.2532 and 0.315. Also, under “virus -”, the “MDCK Mx1 mRNA, ave” value is 0.4419; the “MDCK Mx1 mRNA, individual replicates” value was 0.2755 and 0.4409 and 0.4188 and 0.4047 and 0.5819 and 0.4639 and 0.4949 and 0.4956 and 0.401.
